These results are taken from patent publication US6046207A, “Benzopyranopyrrole and benzopyranopyridine α-1 adrenergic compounds” (priority 1997, dated 2000).

Data set [1] addresses T1, α-1B adrenoreceptor (rat spleen) (Rattus norvegicus, UniProt P15823).
T1 construct: contraction of rat spleen; from tissue; host or cells: rat spleen
T1 sequence (P15823 1-515): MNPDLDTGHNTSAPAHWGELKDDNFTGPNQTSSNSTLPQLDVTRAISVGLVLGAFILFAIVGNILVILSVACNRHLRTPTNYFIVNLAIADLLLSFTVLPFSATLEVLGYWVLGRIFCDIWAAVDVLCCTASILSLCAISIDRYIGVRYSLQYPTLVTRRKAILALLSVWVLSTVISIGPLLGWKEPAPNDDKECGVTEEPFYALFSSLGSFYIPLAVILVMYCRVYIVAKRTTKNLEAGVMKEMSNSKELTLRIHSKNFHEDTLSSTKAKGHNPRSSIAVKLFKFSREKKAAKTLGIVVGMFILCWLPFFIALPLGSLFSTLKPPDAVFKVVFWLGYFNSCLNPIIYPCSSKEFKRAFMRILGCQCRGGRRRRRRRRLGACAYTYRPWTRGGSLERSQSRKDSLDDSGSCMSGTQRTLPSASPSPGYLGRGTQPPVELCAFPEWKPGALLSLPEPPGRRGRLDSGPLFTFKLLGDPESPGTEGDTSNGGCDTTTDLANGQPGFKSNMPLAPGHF
The data set can be described thus: Functional antagonism: inhibition of phenylephrine-induced contraction of rat spleen. Also noted: species or system tissue. The settings on record: for more potent effect on spleen smooth muscle: rat spleen versus the other tissues, in words. From the text:
(§1) Functional assays indicative of pharmacologically defined α-1 adrenoreceptors were used to further characterize compounds. […] For each of these models, agonist dose response curves were repeated against increasing concentrations of test agent to derive a Schild plot [log ([…]) against log (molarity of test agent)] to determine the pA2.

Another data set concerns α-1 adrenoreceptors. The note with it: cited from earlier work; for urinary flow rates and subjective symptom scores, longer term studies: BPH patients.
Data set [2] deals with T2, α-1b (hamster) adrenoreceptor (Mesocricetus auratus, UniProt P18841).
T2 sequence (P18841 1-515): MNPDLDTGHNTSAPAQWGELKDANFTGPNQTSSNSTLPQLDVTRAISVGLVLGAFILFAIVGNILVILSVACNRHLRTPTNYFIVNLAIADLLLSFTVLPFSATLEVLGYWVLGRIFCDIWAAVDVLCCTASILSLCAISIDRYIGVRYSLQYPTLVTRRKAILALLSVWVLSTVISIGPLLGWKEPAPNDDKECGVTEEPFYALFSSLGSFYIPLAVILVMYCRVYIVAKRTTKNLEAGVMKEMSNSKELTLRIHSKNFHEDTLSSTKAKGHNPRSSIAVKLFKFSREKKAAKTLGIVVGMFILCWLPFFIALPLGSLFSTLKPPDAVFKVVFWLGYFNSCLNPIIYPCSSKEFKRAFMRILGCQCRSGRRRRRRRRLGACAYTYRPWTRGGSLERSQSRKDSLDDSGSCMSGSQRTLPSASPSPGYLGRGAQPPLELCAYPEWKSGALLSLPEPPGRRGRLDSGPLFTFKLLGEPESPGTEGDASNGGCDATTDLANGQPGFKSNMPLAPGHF
The experiment in a line: biochemical. The note with it: read-out: Radioligand Binding Ki, 1b (Hamster). As for the experimental part: (§2) In the following, for purposes of discussing alpha-1 adrenoreceptor subtypes, the IUPHAR convention of using lower case letters to define molecular clones and upper case letters to indicate pharmacologically defined adrenoreceptors has been followed. Moreover, the newly recommended nomenclature for alpha-1 (α1a, α1b, α1d) has been used.
(§3) Additionally, binding affinity against the pharmacologically defined α-1A adrenoreceptor (rat submaxillary gland) was measured.
(§4) The cDNA clones encoding the α-1 adrenoreceptors (α-1a, α-1b, and α-1d) were obtained from TULCO (Triangle Universities Licensing Consortium, Research Triangle Park, NC) and inserted into the eukaryotic expression vector SnaB30. In this vector, expression of the adrenoreceptor gene is under the transcriptional control of an SV40 early promoter. Positive drug selection is provided by a neomycin-resistance gene. Mouse fibroblast cells (LTK) were transfected with the α1 expression plasmids and grown in Dulbecco's modified Eagle's medium (DMEM) containing 10% fetal calf serum and 30 μM G418. Stable G418-resistant parental lines were generated, with successful expression of adrenoreceptor protein monitored using radioligand binding techniques. Stable single cell clones derived from the parental lines were screened in adrenoreceptor binding assays to identify clones having high adrenoreceptor density. […]

Data set [3] addresses T3, α-1A adrenoreceptor (rat submaxillary gland) (Rattus norvegicus, UniProt P43140).
T3 construct: Rat submaxillary glands were used for α-1A adrenoreceptors; from tissue; host or cells: rat submaxillary gland membranes
T3 sequence (P43140 1-466): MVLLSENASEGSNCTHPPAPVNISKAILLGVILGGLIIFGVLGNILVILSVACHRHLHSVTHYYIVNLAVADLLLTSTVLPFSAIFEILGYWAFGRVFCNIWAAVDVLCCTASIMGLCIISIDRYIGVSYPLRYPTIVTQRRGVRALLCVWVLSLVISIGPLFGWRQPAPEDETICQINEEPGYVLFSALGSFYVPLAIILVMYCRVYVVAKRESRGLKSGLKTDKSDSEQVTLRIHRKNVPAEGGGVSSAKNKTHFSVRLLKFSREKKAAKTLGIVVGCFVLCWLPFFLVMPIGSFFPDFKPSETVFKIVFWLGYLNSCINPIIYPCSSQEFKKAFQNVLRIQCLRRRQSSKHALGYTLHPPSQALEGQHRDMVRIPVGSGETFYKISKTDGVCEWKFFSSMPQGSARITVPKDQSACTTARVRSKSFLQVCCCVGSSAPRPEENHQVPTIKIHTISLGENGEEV
The experiment in a line: Radioligand binding, [3H]-prazosin displacement, α-1A (rat submaxillary gland). The note with it: [3H]prazosin 0.2 nM. The protocol: as §2, §3
Cells were detached from the roller bottles by incubating for 15 minutes at 37° C. in a Tris-EDTA solution (10 mM Tris, 100 mM NaCl, 1 mM EDTA, pH=7.4). The cell suspension from each roller bottle was decanted into tared centrifuge tubes and kept on ice. An aliquot of each cell suspension was generally taken for cell counting. […] The supernatant was decanted and the pellet weighed to determine the wet weight of cells. Cells were washed a final time in 40 vol 5 mM Tris-HCl, 5 mM EDTA, pH=7.7, and centrifuged at 40,000×G for 10 minutes. Cells were homogenized in 10 mL of 50 mM Tris-HCl, 5 mM EDTA (pH=7.4) and diluted to 40 mL/tube. Homogenates were centrifuged at 40,000×G for 10 minutes. […]
Receptor binding assays for α-1 adrenoreceptors were performed essentially as described by Greengrass and Bremner (Eur. J. Pharmacol. 55: 323-326 (1979)). […] Radioactivity was determined by standard liquid scintillation techniques.

The target in data set [4] is T4, α-1A adrenoreceptor (rat vas deferens) (Rattus norvegicus, UniProt P43140).
T4 construct: contraction of rat vas deferens; from tissue; host or cells: rat vas deferens
T4 sequence (P43140 1-466): T3 sequence (P43140 1-466)
The experiment in a line: Functional antagonism: inhibition of phenylephrine-induced contraction of rat vas deferens. Also noted: species or system tissue. The settings on record: Schild.
Text: as §1

Data set [5] addresses T5, α-1a (bovine) adrenoreceptor (Bos taurus, UniProt P18130).
T5 construct: expressed in transfected cells; host or cells: mouse fibroblast LTK cells, vector SnaB30, cDNA from TULCO
T5 sequence (P18130 1-466): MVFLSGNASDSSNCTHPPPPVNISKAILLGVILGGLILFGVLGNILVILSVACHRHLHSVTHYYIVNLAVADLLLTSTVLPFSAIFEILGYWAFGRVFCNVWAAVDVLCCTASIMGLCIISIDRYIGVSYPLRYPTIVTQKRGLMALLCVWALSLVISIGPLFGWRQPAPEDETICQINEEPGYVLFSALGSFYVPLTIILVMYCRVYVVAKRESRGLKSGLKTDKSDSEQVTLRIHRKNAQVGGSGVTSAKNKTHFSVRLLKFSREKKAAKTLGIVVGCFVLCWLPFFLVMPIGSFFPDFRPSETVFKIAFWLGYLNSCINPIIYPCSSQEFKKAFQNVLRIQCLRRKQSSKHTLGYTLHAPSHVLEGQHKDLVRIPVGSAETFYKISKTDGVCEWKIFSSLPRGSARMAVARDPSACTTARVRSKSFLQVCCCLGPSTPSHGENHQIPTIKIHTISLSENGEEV
The data set can be described thus: Radioligand binding, [3H]-prazosin displacement, cloned α-1a expressed in LTK cells. The settings on record: cloned bovine α-1a, LTK cell membranes, [3H]prazosin 0.2 nM. The protocol:
as §2, §3, §4

Each structure is given as a SMILES string. Where two headings read alike, the source gives them in different places.

For the compound `COc1cc2nc(N3CCN(C(=O)c4ccco4)CC3)nc(N)c2cc1OC` [Prazosin, prazosin], in data set [1], the “more potent effect on spleen smooth muscle” value (from here on “more potent effect”) is on record as “a more potent effect on spleen smooth muscle by approximately an order of magnitude”. In the data set on α-1 adrenoreceptors, the “urinary flow rates and subjective symptom scores, longer term studies” value is “significant improvements in urinary flow rates and subjective symptom scores”. For the same compound, the “urinary incontinence during antihypertensive treatment” value in the data set with α-1 adrenoreceptors (women, antihypertensive treatment) was “urinary incontinence developed in women”.

In the case of `COc1cc2nc(N3CCN(C(=O)C4CCCO4)CC3)nc(N)c2cc1OC` (centres unmarked) [Terazosin, terazosin], the “more potent effect” value in data set [1] is “a more potent effect on spleen smooth muscle by approximately an order of magnitude”. Further, in the data set with α-1 adrenoreceptors, the “urinary flow rates and subjective symptom scores, longer term studies” value is “significant improvements in urinary flow rates and subjective symptom scores”.

The Ki is the equilibrium dissociation constant of an inhibitor or competing ligand from its target. Take `COc1ccc2c(c1)[C@@H]1CN(CCCn3c(=O)[nH]c4c(sc5ncccc54)c3=O)C[C@@H]1CO2` (racemic) [Example 77, 3-[3-((±)-cis-8-Methoxy-1,2,3,3a,4,9b-hexahydro-[1]-benzopyrano[3,4-c]pyrrol-2-yl)propyl]-pyrido[3',2':4,5]thieno[3,2-d]pyrimidine-2,4(1H,3H)-dione]: the Ki in data set [2] stood at 10000 nM.

Take `O=C(NC1CCN(CCc2c[nH]c3ccccc23)CC1)c1ccccc1` [indoramin]: in the data set on α-1 adrenoreceptors, the “urinary flow rates and subjective symptom scores, longer term studies” value is “significant improvements in urinary flow rates and subjective symptom scores”.

Consider `COc1cc2nc(N3CCN(C(=O)C4COc5ccccc5O4)CC3)nc(N)c2cc1OC` (centres unmarked) [Doxazosin, doxazosin], for which the “more potent effect” value in data set [1] is reported as “a more potent effect on spleen smooth muscle by approximately an order of magnitude”. Moreover, the “urinary flow rates and subjective symptom scores, longer term studies” value in the data set with α-1 adrenoreceptors was “significant improvements in urinary flow rates and subjective symptom scores”.

Take `COc1cccc2c1[C@@H]1CN(CCCCn3c(=O)[nH]c4c(sc5nc(Cl)ccc54)c3=O)C[C@@H]1CO2` [Example 32, 3-[4-((3aR,9bR)-cis-9-Methoxy-1,2,3,3a,4,9b-hexahydro-[1]-benzopyrano[3,4-c]pyrrol-2-yl)butyl]-7-chloro-pyrido[3',2':4,5]thieno[3,2-d]pyrimidine-2,4(1H,3H)-dione]: the “In Vitro Characterization (pA2), Rat Spleen” value in data set [1] (rat spleen, phenylephrine, Schild) was determined as 7.24. Further, the Ki in data set [3] was found to be 1.01 nM; in data set [2] (cloned hamster α-1b, LTK cell membranes, [3H]prazosin 0.2 nM), 9.95 nM; in data set [5], 0.093 nM. Also, the “In Vitro Characterization (pA2), Rat Vas” value in data set [4] came to 9.46.
